Assay results: patent US5336485A, “Method for protecting animals against tacrine induced cytotoxic injury using sterol compounds” (priority 1993, dated 1994)
Read-outs that look alike come from different tables or passages of the source.

Columns and labels:
[1] = Tissue distribution of alpha-tocopherol and alpha-tocopherol ester in rats; format: in vivo, rat
[2] = tested on: mouse neuroblastoma cells NBP2; details: 10 μM; cited from earlier work
[3] = tested on: rat hepatocytes; assay: EMS-induced cytotoxicity (LDH leakage/cell death) in rat hepatocyte suspensions; details: for Protection From Toxic Injury: EMS 3 h; for inhibition at 25 µM: Rattus norvegicus, Hepatocyte
[4] = tested on: rat hepatocytes; assay: Cytotoxicity of various toxic insults (A23187, cadmium, O2, doxorubicin, CCl4, hypoxia) in rat hepatocytes; format: cell-based
Procedure: (§1) Only viable cells were monitored in the laboratory procedures.
(§2) In vitro experiments were performed to determine if alpha-TS could protect cells from different toxic insults. Under physiological conditions, rat hepatocytes were incubated with medium containing 25 μM alpha-TS. The hepatocytes were exposed to EMS, a potent mutagen and alkylating agent; the ionophore A23187, a membrane active compound that permits the equilibration of divalent cations across cell membranes; cadmium, a heavy metal, environmental contaminant, and known carcinogen who's mechanism of toxicity remains unknown; 95% O2, an excessive oxygen insult that produces an abundance of toxic oxygen free radicals and reactive oxygen intermediates in the cell; doxorubicin (adriamycin), a clinically important antitumor agent with cytotoxic effects proposed to result from its metabolic activation and the generation or reactive oxygen species; carbon tetrachloride (CCl4); and hypoxia (an absence of oxygen followed by reoxygenation).

[5] = as above; format: cell-based; details: rat, hepatocytes; Control (vehicle only, no insult), 25 μM alpha-TS; read-out: % Cell Death
Procedure: as §1, §2

[6] = tested on: male Sprague-Dawley rats; assay: Energy status of rat tissue; format: in vivo; details: 100 mg/kg ip, 24 h
Procedure: An in vivo experiment was performed to determine the effect of alpha-TS on the energy status of rat tissues. Male Sprague-Dawley rats were administered alpha-TS (100 mg/kg, single ip dose) or olive oil (vehicle only, 0.2 ml, single ip dose). Three rats were used per treatment. The rats fasted for 24 hours after ip dosage prior to sacrifice and analysis of tissues.

[7] = tested on: rat hepatocytes; details: cited from earlier work
[8] = (b) ip, peanut oil and ETOH, 1 dose 100 mg/kg, 24 h
[9] = (e) iv, liposomes, 1 dose 100 mg/kg, 24 h
[10] = (f) ip, olive oil, 7 daily doses

Compound: Cc1c(C)c2c(c(C)c1OC(=O)CCC(=O)O)CC[C@@](C)(CCC[C@H](C)CCC[C@H](C)CCCC(C)C)O2 [alpha-TS, d-alpha-tocopheryl succinate]
- Liver Concentration Ester ([1]; 100 mg/kg ip, 24 h): 119 ± 16 nmol/g
- alpha-TS, Blood [1, 8]: 7 nmoles/gm of Tissue
- alpha-TS, Heart [1, 8]: 47 nmoles/gm of Tissue
- alpha-TS, Kidney [1, 8]: 31 nmoles/gm of Tissue
- alpha-TS, Liver [1, 8]: 119 nmoles/gm of Tissue
- alpha-TS, Lung [1, 8]: 90 nmoles/gm of Tissue
- alpha-TS, Plasma [1, 8]: 8 nmoles/gm of Tissue
- alpha-TS, Blood [1, 9]: 6 nmoles/gm of Tissue
- alpha-TS, Heart [1, 9]: 10 nmoles/gm of Tissue
- alpha-TS, Liver [1, 9]: 322 nmoles/gm of Tissue
- alpha-TS, Lung [1, 9]: 4843 nmoles/gm of Tissue
- alpha-TS, Plasma [1, 9]: 5 nmoles/gm of Tissue
- alpha-TS, Blood [1, 10]: 15 nmoles/gm of Tissue
- alpha-TS, Brain [1, 10]: 6 nmoles/gm of Tissue
- alpha-TS, Heart [1, 10]: 34 nmoles/gm of Tissue
- alpha-TS, Kidney [1, 10]: 44 nmoles/gm of Tissue
- alpha-TS, Liver [1, 10]: 161 nmoles/gm of Tissue
- alpha-TS, Lung [1, 10]: 128 nmoles/gm of Tissue
- accumulation of hepatic alpha-TS ([1]; oral): elimination of both the accumulation of hepatic alpha-TS and protection against CCl4 lethality
- tumor cell growth [2]: inhibits tumor cell growth
- protection against loss of viability ([3]; 0.5 μM, EMS): 85%
- protection against loss of viability and metabolic performance ([3]; 2 μM, EMS): 100%
- Protection From Toxic Injury ([3]; 2.0 μM): Yes
- Protection From Toxic Injury ([3]; 10 μM): Yes
- Protection From Toxic Injury ([3]; 25 μM): Yes
- Protection From Toxic Injury ([3]; 250 μM): Yes
- Cell Death ([3]; 50 mM EMS + 25 μM alpha-TS): 30 ± 7%
- Cell Death ([3]; 50 mM EMS + 25 μM alpha-TS + 100 μM Bis-(p-nitrophenyl) phosphate): 52 ± 3%
- Cell Death ([3]; 50 mM EMS + 25 μM alpha-TS + 100 μM Diethyl p-nitrophenyl phosphate): 58 ± 8%
- Cell Death ([3]; 50 mM EMS, 5 Hrs, alpha-TS 25, methyl ester 50, cholesteryl succinate 100, monomethyl/dimethyl succinate 250 μM): 27 ± 1%
- Protection From Toxic Injury ([3]; .5 μM): Yes
- % Cell Death ([3]; EMS 50 mM, 25 μM alpha-TS (no alpha-TS 68)): 25%
- inhibition at 25 µM ([3]; 5 h, read-out: Percent Cytoprotection, 25 μM, 50 mM EMS, 5 h): 92 ± 3%
- inhibition at 25 µM ([3]; read-out: % Protection, 25 μM, 50 mM EMS): 100%
- protection from lethal effects of EMS ([3]; rat hepatocytes, 25 μM, 50 mM EMS): protected both rat and canine hepatocytes from the lethal effects
- % Cell Death ([4]; 95% Oxygen, 25 μM alpha-TS (no alpha-TS 57)): 23%
- % Cell Death ([4]; CCl4 2.5 mM, 25 μM alpha-TS (no alpha-TS 63)): 38%
- % Cell Death ([4]; Cadmium 0.1 mM, 25 μM alpha-TS (no alpha-TS 70)): 24%
- % Cell Death ([4]; Doxorubicin 100 μM, 25 μM alpha-TS (no alpha-TS 62)): 28%
- % Cell Death ([4]; Hypoxia 4 hrs N2 and 2 hrs O2, 25 μM alpha-TS (no alpha-TS 70)): 49%
- % Cell Death ([4]; Ionophore A23187 5 μM, 25 μM alpha-TS (no alpha-TS 73)): 24%
- protection from lethal effects of ionophore A23187 ([4]; rat hepatocytes, 25 μM, 5 μM A23187): protected rat hepatocytes from the lethal effects
- cytotoxicity at 25 µM [5]: 21%
- ATP, Blood [6]: 647 ± 29 nmol/g
- ATP, Brain [6]: 293 ± 86 nmol/g
- ATP, Heart [6]: 2782 ± 868 nmol/g
- ATP, Kidney [6]: 515 ± 44 nmol/g
- ATP, Liver [6]: 458 ± 57 nmol/g
- ATP, Lung [6]: 418 ± 18 nmol/g
- Glucose, Blood [6]: 4.8 ± 0.3 µmol/g
- Glucose, Heart [6]: 10.1 ± 1.7 µmol/g
- Glucose, Kidney [6]: 3.4 ± 1.1 µmol/g
- Glucose, Liver [6]: 21.7 ± 9.7 µmol/g
- Glucose, Lung [6]: 4.1 ± 0.5 µmol/g
- Glycogen, Blood [6]: 117 ± 26 µmol/g
- Glycogen, Brain [6]: 1400 ± 372 nmol/g
- Glycogen, Heart [6]: 4320 ± 946 nmol/g
- Glycogen, Kidney [6]: 211 ± 44 µmol/g
- Glycogen, Liver [6]: 778 ± 98 µmol/g
- Glycogen, Lung [6]: 634 ± 133 µmol/g
- Lactate, Blood [6]: 1.68 ± .06 µmol/g
- Lactate, Brain [6]: 7.82 ± .20 µmol/g
- Lactate, Heart [6]: 10.84 ± 2.67 µmol/g
- Lactate, Kidney [6]: 3.10 ± .21 µmol/g
- Lactate, Liver [6]: 3.36 ± .20 µmol/g
- Lactate, Lung [6]: 2.24 ± .29 µmol/g
- cytoprotective effect at 3.5 mM Ca2+ ([7]; 3.5 mM Ca2+): eliminated the cytoprotective effect
- protection of rat hepatocytes from toxic effects of drugs ([7]; Ca2+ free medium): protected from the toxic effects of drugs
